From patent US12497431B2, “Modified peptide fragments of Cav-1 protein and the use thereof in the treatment of fibrosis” (Rein Therapeutics, Inc., priority 2018, dated 2025)
Non-standard residues stand in square brackets, D forms with d. Residues, ends and D or L forms follow the SMILES beside them. No end group written: not given here. Orn = NCCC[C@H](N)C(=O)O

Assays:
[1] = Cav-1 peptide solubility in Tris Buffered Saline, pH 7.51 (absorbance at 600 nm); type: physicochemical; conditions: for UV (Abs) at dissolution / UV (Abs) after rest: absorbance at 600 nm, 50 mg in 5 mL TBS pH 7.51; for UV (Abs) at dissolution: immediately after dissolution for insoluble peptides, after 10 minutes for soluble peptides; for UV (Abs) after rest: again after 10 minutes (APi2348 15 min, APi2352 5 min, APi2353 15 min, APi2345 only after 20 min)
Description: In order to determine which peptides may be most soluble in a liquid formulation, 50 mg of each Cav-1 peptide was dissolved in 5 mL of Tris Buffered Saline, pH 7.51. Each sample was vortexed to help the sample dissolve completely. The absorbance at 600 nm was measured immediately after dissolution of the peptides for insoluble peptides, or after 10 minutes for soluble peptides. Absorbance was measured again after 10 minutes for insoluble peptides except for samples APi2348, APi2352, APi2353 which were measured a second time at 15 minutes, 5 minutes, or 15 minutes after dissolution, respectively.

[2] = test system: Idiopathic Pulmonary Fibrosis (IPF) cell line 2051; assay: Western blot of SMA and tubulin in IPF cells treated with Cav-1 peptides; type: cell-based; conditions: 2 days treatment, 10 uM peptide (LTI-03 10 and 90 uM), ImageJ ratio (FIG. 2)
Description: Cav-1 peptides were dissolved in DMSO to make 10 mM stock solutions. 10 mM stock solutions of each peptide were then diluted in HBSS to make 900 μM working stock solutions. The DMSO resuspended polypeptides as well as the working stocks were stored at −20 deg C. For culture media, working stocks were added to DMEM culture media to a final concentration of 10 μM of the Cav-1 peptide.
Idiopathic Pulmonary Fibrosis (IPF) cell line 2051 was purchased and IPF cells from the fourth passage were seeded in 100 mm plates containing DMEM, 10% FBS, and 1% P/S. IPF cells were washed with 4 mL DMEM+1% P/S and serum starved overnight. Cells were then treated for 2 days with either 44 uL HBSS (negative control), 10 uM LTI-03 (SEQ ID NO: 2), 90 uM LTI-03 (positive control), 10 uM APi2350, 10 uM APi2354, 10 uM APi2355, 10 uM APi2356 or with 20 uL of DMSO (negative control).
After 2 days of treatment, cells were washed once in cold, sterile HBSS. HBSS was removed, and 150 uL of lysis buffer with protease inhibitor cocktail was added to the cells. Cells were incubated with lysis buffer for 10 minutes. Cell lysates were scraped from the plates and collected. Cell lysates were then sonicated twice. Following sonication, the lysates were centrifuged at 13,000 RPM for 20 minutes. Lysates were then flash frozen in liquid nitrogen, thawed, vortexed, and centrifuged again at 13,000 RPM for 30 minutes. The supernatant was then collected and the pellet was discarded. The concentration of cell lysates was then determined by BCA assay.
Western blots were performed to evaluate the presence the effects of treatments. Briefly, 12 ug of each lysate was run on a 10% polyacrylamide gel. The gel was then transferred to a membrane and washed. Primary antibodies against smooth muscle actin (SMA) and Tubulin Results of the western blot can be seen in FIG. 1. The treatment for each of the lysates in the pictured lanes are: 1: Untreated, 2: 10 μM LTI-03, 3: 90 μM LTI-03, 4: 10 μM APi2350, 5: 10 μM APi2354, 6: 10 μM APi 2355, 7: 10 μM APi2356, and 8: DMSO.
Western blots were photographed and analyzed with ImageJ to determine a ratio of smooth muscle actin to tubulin (FIG. 2).

[3] = test system: AEC2 cells of non-specific interstitial pneumonia (NSIP) precision cut lung slices; assay: Lysotracker staining of AEC2 cells in NSIP precision cut lung slices; type: cell-based; conditions: NSIP PCLS, 48 h after a single treatment with 10, 100, or 500 μM
Excerpt: (§1) To assess the effect of Cav-1 peptide APi2355 (SEQ ID NO: 8) on AEC2 cell viability, surgical biopsies were obtained for the preparation of non-specific interstitial pneumonia precision cut lung slices (PCLS). One individual with non-specific interstitial pneumonia (NSIP) and another with end-stage IPF were processed. Lysotracker staining, which stains acidic compartments in live cells and selectively accumulates in the lamellar bodies of lung AEC2 cells (Van der Velden et al., 2013), was performed. Cav-1 peptide was suspended in DMEM/5% FBS, and PCLS slices (n=5 replicates/treatment group) were treated with 10, 100, or 500 μM LTI-03 or APi2355 (Var 55). Lysotracker staining (Green DND-26, Promega) was performed on NSIP PCLS 48 h after a single treatment. […] In addition, lysotracker staining (Red DND-99, Promega) was performed on end-stage IPF on days 1, 2, 3, 5, and 7 following daily treatment with LTI-03 or APi2355.

[4] = test system: AEC2 cells of end-stage IPF precision cut lung slices; assay: Lysotracker staining of AEC2 cells in end-stage IPF precision cut lung slices; type: cell-based; conditions: end-stage IPF PCLS, daily treatment, staining on days 1, 2, 3, 5, and 7; 10, 100, or 500 μM
Excerpt: as §1

[5] = TBS pH 7.51, compared to other tested peptides

Compound: OASFTTFTVTOS-NH2 ([Orn]ASFTTFTVT[Orn]S-NH2; N-terminus assumed; SMILES CC(C)[C@H](NC(=O)[C@@H](NC(=O)[C@H](Cc1ccccc1)NC(=O)[C@@H](NC(=O)[C@@H](NC(=O)[C@H](Cc1ccccc1)NC(=O)[C@H](CO)NC(=O)[C@H](C)NC(=O)[C@@H](N)CCCN)[C@@H](C)O)[C@@H](C)O)[C@@H](C)O)C(=O)N[C@H](C(=O)N[C@@H](CCCN)C(=O)N[C@@H](CO)C(N)=O)[C@@H](C)O) [APi2356, O = Ornithine]
- UV (Abs) at dissolution [1]: 0.001
- solubility at pH 7.51 (in words) ([1]; pH 7.51): increased solubility
- expression of SMA relative to tubulin [2]: increased the expression of SMA relative to tubulin

Compound: KASFTTFTVTKGS-NH2 [APi2350]
- solubility at pH 7.51 (in words) ([1]; pH 7.51): increased solubility
- expression of SMA relative to tubulin [2]: increased the expression of SMA relative to tubulin

Compound: H-DSGKASFTTFTVTK-NH2 [APi2352, DSGKASFTTFTVTK-NH2]
- UV (Abs) after rest [1]: 2.398
- UV (Abs) at dissolution [1]: 2.468

Compound: CC(C)[C@H](NC(=O)[C@@H](NC(=O)[C@H](Cc1ccccc1)NC(=O)[C@@H](NC(=O)[C@@H](NC(=O)[C@H](Cc1ccccc1)NC(=O)[C@H](CO)NC(=O)[C@H](C)NC(=O)[C@@H](N)CCCN)[C@@H](C)O)[C@@H](C)O)[C@@H](C)O)C(=O)N[C@H](C(=O)N[C@@H](CCCCN)C(N)=O)[C@@H](C)O [APi2348, OASFTTFTVTK-NH2] (H-[Orn]ASFTTFTVTK-NH2)
- UV (Abs) at dissolution [1]: 0.846

Compound: Ac-OASFTTFTVTK-NH2 [APi2349]
- UV (Abs) after rest [1]: 1.827
- UV (Abs) at dissolution [1]: 1.870

Compound: Ac-KASFTTFTVTK-NH2 [APi2347, Ac-KASFTTFTVTK-NH2]
- UV (Abs) after rest [1]: 2.284
- UV (Abs) at dissolution [1]: 2.347

Compound: Ac-KASFTTFTVTKGS-NH2 [APi2351, Ac-KASFTTFTVTKGS-NH2]
- UV (Abs) after rest [1]: 2.377
- UV (Abs) at dissolution [1]: 2.523

Compound: H-FTTFTVTK-NH2 [APi2345, FTTFTVTK-NH2]
- solubility at pH 7.51 (in words) [1, 5]: dissolution was incomplete
- UV (Abs) after rest [1]: 1.058

Compound: CC(C)[C@H](NC(=O)[C@@H](NC(=O)[C@H](Cc1ccccc1)NC(=O)[C@@H](NC(=O)[C@@H](NC(=O)[C@H](Cc1ccccc1)NC(=O)[C@H](CO)NC(=O)[C@H](C)NC(=O)[C@H](CCCCN)NC(=O)CNC(=O)[C@H](CCC(=O)O)NC(=O)[C@@H](C)NC(=O)[C@@H](C)N)[C@@H](C)O)[C@@H](C)O)[C@@H](C)O)C(=O)N[C@H](C(=O)N[C@@H](CCCCN)C(=O)NCC(=O)N[C@@H](CO)C(=O)N[C@H](C)C(=O)N[C@H](C)C(N)=O)[C@@H](C)O [APi2354, aaEGKASFTTFTVTKGSaa-NH2] (H-[dA][dA]EGKASFTTFTVTKGS[dA][dA]-NH2)
- solubility at pH 7.51 (in words) [1, 5]: increased solubility
- UV (Abs) after rest [1]: 0.007
- UV (Abs) at dissolution [1]: 0.008
- expression of SMA relative to tubulin [2]: increased the expression of SMA relative to tubulin

Compound: Ac-DSGKASFTTFTVTK-NH2 [APi2353, Ac-DSGKASFTTFTVTK-NH2]
- UV (Abs) after rest [1]: 3.000
- UV (Abs) at dissolution [1]: 3.000

Compound: H-FTTFTVT-NH2 [APi2344, FTTFTVT-NH2]
- UV (Abs) after rest [1]: 1.437
- UV (Abs) at dissolution [1]: 2.409

Compound: H-KASFTTFTVTK-NH2 [APi2346, KASFTTFTVTK-NH2]
- UV (Abs) after rest [1]: 1.622
- UV (Abs) at dissolution [1]: 1.648

Compound: CC(=O)N[C@H](C)C(=O)N[C@H](C)C(=O)N[C@@H](CCC(=O)O)C(=O)NCC(=O)N[C@@H](CCCCN)C(=O)N[C@@H](C)C(=O)N[C@@H](CO)C(=O)N[C@@H](Cc1ccccc1)C(=O)N[C@H](C(=O)N[C@H](C(=O)N[C@@H](Cc1ccccc1)C(=O)N[C@H](C(=O)N[C@H](C(=O)N[C@H](C(=O)N[C@@H](CCCCN)C(=O)NCC(=O)N[C@@H](CO)C(=O)N[C@H](C)C(=O)N[C@H](C)C(N)=O)[C@@H](C)O)C(C)C)[C@@H](C)O)[C@@H](C)O)[C@@H](C)O [APi2355, Ac-aaEGKASFTTFTVTKGSaa-NH2] (Ac-[dA][dA]EGKASFTTFTVTKGS[dA][dA]-NH2)
- solubility at pH 7.51 (in words) [1, 5]: increased solubility
- UV (Abs) after rest [1]: 0.000
- UV (Abs) at dissolution [1]: 0.000
- AEC2 cell viability (lysotracker staining) [3]: strong dose-dependent increase
- expression of SMA relative to tubulin [2]: increased the expression of SMA relative to tubulin
- AEC2 cell viability (lysotracker staining) [4]: observed out to day 3

Compound: Ac-OASFTTFTVTOS-NH2 [APi2357]
- UV (Abs) at dissolution [1]: 2.293
